Columns and labels:
[1] = tested on: patients with mild to moderate AD (MMSE 16-26); test: Phase 2 placebo-controlled trial: cognitive and functional outcome measures (NTB, ADCS-ADL, CDR-SB); type: in vivo, human
Experimental: In a Phase 2, parallel arm, dose-ranging, placebo-controlled, double-blind, multicenter trial in patients with mild to moderate AD (MMSE 16-26), scyllo-inositol was administered to study subjects in immediate release tablets twice daily at the dosage level set for each study arm or identical-appearing placebo tablets were administered in the control arm. […] The study included neuropsychological assessments using the NPI-12 item scale, as well as assessments of scyllo-Inositol (SI) and myo-inositol (MI) brain levels using magnetic resonance spectroscopy (MRS).
Study drug was administered as placebo or one of 3 doses of scyllo-inositol (SI): 250 mg, 1000 mg and 2000 mg, each dose given twice daily (bid) as capsules of either 250 mg or 1000 mg.
The present study was a dose ranging study in Mild and Moderate AD patients (defined as having MMSE scores of 16-26 inclusive), and included 3 doses of scyllo-insoitol given bid (250 mg, 1000 mg, and 2000 mg) and placebo. The study was of 78 weeks duration and enrolled a total of 353 patients, and 351 received study drug (safety population). Due to safety findings in the 2 highest dose groups, these 2 groups were discontinued and the study's final efficacy analysis was based only on the 250 mg and placebo groups. The primary efficacy analysis was based on the overall population (mild and moderate), but the statistical analysis plan (SAP) Included subgroup analyses by disease severity, and defined Mild as patients with MMSE 23-26 and Moderate 16-22 inclusive. In the overall study population, total randomized to all 4 dose groups=353, total that received study drug=351 (safety population, at any dose). For placebo and 250 mg group, the overall m-ITT (modified intent-to-treat)=166, overall PPS (per protocol set)=96.
Values for all clinical outcome measures were calculated so that a positive change from baseline indicates improvement, and a positive difference from placebo indicates drug benefit.
A sensitivity analysis was performed post-hoc using a wider definition of the Mild sub-group (MMSE: 22-26 inclusive) with a larger sample size. In this sensitivity analysis, the positive effect of the 250 mg on the NTB score approached a significant trend (p<0.1) in the m-ITT analysis (Table 3), and was significant (p<0.05) in the PP analysis (data on file). […] On this basis, all further analyses shown here are defined in the Mild and Moderate subgroups as patients having MMSE scores between 22-26 (Mild) and 16-21 (Moderate) inclusive.

CSF Abeta42 = test: Phase 2 trial: cerebrospinal fluid Abeta42; type: in vivo, human; details: 250 mg bid; statistically significant
Experimental: The effect of the 250 mg dose on cerebrospinal fluid (CSF) Abeta42 reduction (˜27% compared to baseline) was statistically significant, but the higher doses seemed to provide further Abeta42 reduction. Despite the dose-dependent effects of scyllo-inositol on CSF Abeta42, the 2 high doses consistently produced smaller effects on clinical endpoints than the 250 mg dose. This observed dissociation between the dose-dependent effects on CSF Abeta42 and the clinically measured NPI outcomes supports the concept that scyllo Inositol clinical effects are mediated by two distinct mechanisms. These mechanisms include: 1. reduction of brain amyloid load and resulting synaptic toxicity which has previously been disclosed affect memory and reasoning/problem solving, but not NPS, and 2. down-regulation of brain myo-inositol levels with secondary salutary effects on neuronal function (Machado-Vieira et al. 2009). The only other MRS studies measuring in vivo brain levels of myo-inositol and scyllo-inositol after scyllo-inositol administration were in transgenic mice. (Choi, et al. 2010, Neuropharmacology, 59(4-5): 353-357). […] The details of the Phase 2 data are described below.

myo-inositol = details: transgenic mice, Choi et al. 2010; cited from earlier work
[2] = 250 mg bid, Mild MMSE 22-26 (post-hoc), m-ITT
[3] = 250 mg bid, Mild MMSE 22-26, m-ITT
[4] = 250 mg bid, Mild MMSE 23-26, PPS
[5] = 250 mg bid, Mild MMSE 23-26, m-ITT
[6] = 250 mg bid, Mild MMSE 23-26, m-ITT, week 78, positive = drug benefit

## O[C@H]1[C@H](O)[C@@H](O)[C@H](O)[C@@H](O)[C@@H]1O [scyllo-inositol]
[1]; [2]
  ADCS-DL drug-placebo difference: 3.15
  CDR-SB drug-placebo difference: 0.97
  NTB drug-placebo difference: 0.2
[1]; [3]
  ADCS-DL % effect compared to placebo: 42%
  CDR-SB % effect compared to placebo: 42%
  NTB % effect compared to placebo: 75%
[1]; [4]
  ADCS-ADL % effect compared to placebo: 31%
  ADCS-ADL drug-placebo difference: 2.25
  CDR-SB % effect compared to placebo: 44%
  CDR-SB drug-placebo difference: 0.95
  NTB % effect compared to placebo: 100%
  NTB drug-placebo difference: 0.4
[1]; [5]
  ADCS-ADL % effect compared to placebo: 35%
  CDR-SB % effect compared to placebo: 40%
  NTB % effect compared to placebo: 72%
[1]; [6]
  ADCS-ADL drug-placebo difference: 2.26
  CDR-SB drug-placebo difference: 0.87
  NTB drug-placebo difference: 0.2
[1]; 250 mg bid, overall mild and moderate population, per protocol subjects, week 78, not statistically significant
  magnitude of the 250 mg effect on the NTB: 0.15
[1]; 250 mg bid, overall population, per protocol subjects, week 78
  NTB benefit compared to placebo: 40%
[1]; overall Mild and Moderate population
  benefit on co-primary cognitive and functional endpoints (NTB and ADCS-ADL): no statistically significant benefit
CSF Abeta42
  CSF Abeta42 reduction compared to baseline: 27%
myo-inositol
  myo-inositol reductions in frontal cortex and hippocampus (MRS): rather modest non significant myo-inositol reductions

Source: US20140243422A1, “METHODS OF TREATING BEHAVIORAL AND PSYCHIATRIC DISORDERS” (ELAN PHARMACEUTICALS, INC., priority 2011, published 2014)
